The results in this text go back to article PMC8686763, “Pre-Steady-State Kinetics of the SARS-CoV-2 Main Protease as a Powerful Tool for Antiviral Drug Discovery” (Frontiers in Pharmacology, 2021).

Assay [1] concerns the target T1, C145A M^pro (Severe acute respiratory syndrome coronavirus 2, UniProt P0DTD1, C3408A). Type of assay: binding, SARS-CoV-2.
The target in assay [2] is T1, C145A M^pro. Type of assay: binding, SARS-CoV-2. This is another data set of the same source.

For the compound `COc1cccc2[nH]c(C(=O)N[C@@H](CC(C)C)C(=O)N[C@@H](C[C@@H]3CCNC3=O)C(=O)CO)cc12` [PF-00835231], on C145A M^pro [1], the “K 1 (= k 1/k −1)” value is 0.30 ± 0.02 M⁻¹, the “K 2 (= k 2/k −2)” value amounted to 0.35 ± 0.09, the “formation of the initial complex (k 1) faster for C145A M^pro than WT” value is recorded as “approximately 20 fold” and the “k 1” value is on record as “(6.6 ± 0.2)×10^6 M^−1×s^−1”. Further, at C145A M^pro [1], the “k 2” value turned out to be 1.0 ± 0.2 s⁻¹, the “k -1” value came out at 22 ± 0.2 s⁻¹ and the “k -2” value came to 2.8 ± 0.2 s⁻¹. For the same compound, on C145A M^pro [2], the “change in Tm” value is approximately 2.2 °C.
